24 compounds from patent US8362236B2, “Macrocyclic compound” (Chugai Seiyaku Kabushiki Kaisha, priority 2007, dated 2013) can be followed below.

Where only a bound is given, the exact number is not on record here.

The target of one assay is T1, Human HSP90 alpha (Homo sapiens, UniProt P07900).
T1 construct: His tag (inferred from purification on a HisPrep FF column); made in house; host or cells: E. coli BL21 codon plus (Stratagene)
Description: Assay for the activity of inhibiting HSP90 enzyme (ATPase, malachite green). Type of assay: biochemical. The settings on record: purified human HSP90 alpha, 1 mM ATP added, 37° C. for two hours, OD655; read-out: Enzyme-inhibiting activity (IC50, μM) Human HSP90α. Here is the method:
Introduction of pETHuHSP90a into E. coli (BL21 codon plus; Stratagene) was followed by O/N incubation in the presence of 0.1 mM IPTG, and the collected E. coli cells were disrupted by ultrasonication in a Lysis buffer (50 mM Tris-HCl (pH8.0), 10 mM MgCl2, 0.1% Triton X-100, Protease inhibitor cocktail tablets (Roche Diagnostics)). The cell lysate solution was centrifuged (10,000 rpm×30 minutes), and the supernatant obtained after centrifugation was used as a crude extract. The crude extract was fractionated using HisPrep FF column and HiTrap Q column (Amersham) to prepare a purified enzyme solution.
An enzyme solution for assays was prepared by dilution of the purified enzyme solution using an assay buffer (50 mM Tris HCl pH7.6, 20 mM KCl, 5 mM MgCl2).
10 μL each of various concentrations of the test substances (10% DMSO solution) was added to each well, and for the positive control wells, 10 μL of 10% DMSO was added. 10 μL of 10% DMSO was also added to the negative control well.
10 μL of 1 mM ATP was added to all of the wells, and the reaction was carried out at 37° C. for two hours.

The subject of a further assay is HCT116 cells. Nature of the assay: Measurement of cell growth inhibition (Cell Counting Kit-8, four days).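 Further: cells exposed to a range of test concentrations at 37 °C in 5% CO2 for four days, then growth read as absorbance with Cell Counting Kit-8.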 The note with it: Homo sapiens, HCT-116, 96 h, read-out: Cell growth-inhibiting activity (IC50, μM) Colon cancer HCT116, HCT116 colon cancer cell line, four days culture. In general terms: Tetrazolium assays rely on reduction of a dye to a coloured formazan, in cell work by metabolically active cells.

Description for HCT116 cells: Cells were maintained under conditions recommended by the provider of each cell line. Cells suspended in a medium were added to solutions containing various concentrations of the test substance, and the cells were cultured at 37° C. in a 5% CO2 incubator. Four days later, Cell Counting Kit-8 was added, and absorbance measurements were taken following the protocol included in the kit.

`COC(=O)[C@@H]1CCNC(=O)CCSc2cc(nc(N)n2)-c2cc(c(C)cc2C)C(=O)N1` [Compound 63, (S)-4-amino-18,20-dimethyl-10,16-dioxo-7-thia-3,5,11,15-tetraazatricyclo[15.3.1.1^2,6]docosa-1(20),2(22),3,5,17(21),18-hexaene-14-carboxylic acid methyl ester]: the IC50 (usually the concentration that inhibits the measured activity by half) on Human HSP90 alpha came to 2.8 µM; with HCT116 cells it was 0.2 µM.

Turning to `CC(=O)NC1CCNC(=O)c2cc(c(C)cc2C)-c2cc(nc(N)n2)SCCNC1=O` (stereo not drawn) [Compound 74, N-(4-amino-18,20-dimethyl-10,16-dioxo-7-thia-3,5,10,15-tetraazatricyclo[15.3.1.1^2,6]docosa-1(20),2(22),3,5,17(21),18-hexaen-12-yl)acetamide], the figures for the IC50 at Human HSP90 alpha and in the assay with HCT116 cells were 2.3 µM and 5.7 µM, respectively.

In the case of `Cc1cc(C)c2cc1C(=O)NCCN(C)CCNC(=O)CCSc1cc-2nc(N)n1` [Compound 30, 4-amino-14,20,22-trimethyl-7-thia-3,5,11,14,17-pentaazatricyclo[17.3.1.1^2,6]tetracosa-1(22),2(24),3,5,19(23),20-hexaene-10,18-dione], the IC50 at Human HSP90 alpha amounted to 1.8 µM; in the assay on HCT116 cells, 0.5 µM.

For `Cc1cc(C)c2cc1C(=O)N[C@H](C(=O)N(C)C)CCNC(=O)CCSc1cc-2nc(N)n1` [Compound 67, (S)-4-amino-18,20-dimethyl-10,16-dioxo-7-thia-3,5,11,15-tetraazatricyclo[15.3.1.1^2,6]docosa-1(20),2(22),3,5,17(21),18-hexaene-14-carboxylic acid dimethylamide], the IC50 was 5.5 µM at Human HSP90 alpha and above 5 µM with HCT116 cells.

With `Cc1cc(C)c2cc1C(=O)NCCC(=O)NCCSc1cc-2nc(N)n1` [Compound 12, 4-amino-17,19-dimethyl-7-thia-3,5,10,14-tetraazatricyclo[14.3.1.1^2,6]henicosa-1(19),2(21),3,5,16(20),17-hexaene-11,15-dione], the values for the half-inhibitory concentration (IC50) at Human HSP90 alpha and in the assay with HCT116 cells were 1.3 µM and 0.72 µM, respectively.

Regarding `Cc1cc(C)c2cc1C(=O)NCC[C@@H](C(=O)N1CCOCC1)NC(=O)CCSc1cc-2nc(N)n1` [Compound 70, (S)-4-amino-18,20-dimethyl-12-(morpholine-4-carbonyl)-7-thia-3,5,11,15-tetraazatricyclo[15.3.1.1^2,6]docosa-1(20),2,4,6(22),17(21),18-hexaene-10,16-dione], the concentration for half-maximal inhibition (IC50) at Human HSP90 alpha was 2.7 µM; in the assay on HCT116 cells, above 10 µM.

In the case of `Cc1cc(C)c2cc1C(=O)NCCCN(C)C(=O)CCSc1cc-2nc(N)n1` [Compound 32, 4-amino-11,18,20-trimethyl-7-thia-3,5,11,15-tetraazatricyclo[15.3.1.1^2,6]docosa-1(20),2,4,6(22),17(21),18-hexaene-10,16-dione], the IC50 at Human HSP90 alpha was 0.5 µM; with HCT116 cells, 0.4 µM.

Take `Cc1cc(C)c2cc1C(=O)NCCC(N(C)C)C(=O)NCCSc1cc-2nc(N)n1` (stereo not drawn) [Compound 78, 4-amino-12-dimethylamino-18,20-dimethyl-7-thia-3,5,10,15-tetraazatricyclo[15.3.1.1^2,6]docosa-1(20),2(22),3,5,17(21),18-hexaene-11,16-dione]: the figures for the IC50 at Human HSP90 alpha and in the assay with HCT116 cells were 2.8 µM and 0.5 µM, respectively.

Regarding `Nc1nc2cc(n1)-c1cc(c(Cl)cc1Cl)C(=O)NCCCC(=O)NCCS2` [Compound 15, 4-amino-18,20-dichloro-7-thia-3,5,10,15-tetraazatricyclo[15.3.1.1^2,6]docosa-1(20),2(22),3,5,17(21),18-hexaene-11,16-dione], the IC50 on Human HSP90 alpha was determined as 1.6 µM; in the assay on HCT116 cells, 0.14 µM.

On to `Cc1cc(C)c2cc1C(=O)NCCCC(=O)N(CCO)CCSc1cc-2nc(N)n1` [Compound 79, 4-amino-10-(2-hydroxyethyl)-18,20-dimethyl-7-thia-3,5,10,15-tetraazatricyclo[15.3.1.1^2,6]docosa-1(20),2(22),3,5,17(21),18-hexaene-11,16-dione], for which the concentration for half-maximal inhibition (IC50) on Human HSP90 alpha was found to be 3 µM; in the assay with HCT116 cells, 0.4 µM.

Take `Cc1cc(C)c2cc1C(=O)NCCCN(CCN1CCOCC1)C(=O)CCSc1cc-2nc(N)n1` [Compound 36, 4-amino-18,20-dimethyl-11-(2-morpholin-4-ylethyl)-7-thia-3,5,11,15-tetraazatricyclo[15.3.1.1^2,6]docosa-1(20),2,4,6(22),17(21),18-hexaene-10,16-dione]: the IC50 came out at 0.7 µM at Human HSP90 alpha and 1.8 µM in the assay on HCT116 cells.

Regarding `Nc1nc2cc(n1)-c1cc(c(Cl)cc1Cl)C(=O)NCCCNC(=O)CCS2` [Compound 8, 4-amino-18,20-dichloro-7-thia-3,5,11,15-tetraazatricyclo[15.3.1.1^2,6]docosa-1(20),2(22),3,5,17(21),18-hexaene-10,16-dione], the 50% inhibitory concentration (IC50) came out at 2 µM at Human HSP90 alpha and 0.21 µM in the assay with HCT116 cells.

With `Cc1cc(C)c2cc1C(=O)NCC1(CNC(=O)CCSc3cc-2nc(N)n3)COC1` [Compound 72], the IC50 stood at 2.2 µM at Human HSP90 alpha and 1 µM with HCT116 cells.

As for `Cc1cc(C)c2cc1C(=O)NCCCN(CCO)C(=O)CCSc1cc-2nc(N)n1` [Compound 34, 4-amino-11-(2-hydroxyethyl)-18,20-dimethyl-7-thia-3,5,11,15-tetraazatricyclo[15.3.1.1^2,6]docosa-1(20),2,4,6(22),17(21),18-hexaene-10,16-dione], the IC50 is 2.8 µM on Human HSP90 alpha and 1.1 µM in the assay on HCT116 cells.

Turning to `Cc1cc(C)c2cc1C1=N[C@@H](CCNC(=O)CCSc3cc-2nc(N)n3)CO1` [Compound 83, (S)-4-amino-19,21-dimethyl-10-oxo-7-thia-16-oxa-3,5,11,24-tetraazatetracyclo[16.3.1.1^2,6.1^7,10]tetracosa-1(22),2(23),3,5,17(24),19,21-heptaen-10-one], the figures for the IC50 at Human HSP90 alpha and with HCT116 cells were 2.8 µM and 0.4 µM, respectively.

Turning to `Cc1cc(C)c2cc1C(=O)NCCCC(=O)N(CCN1CCOCC1)CCSc1cc-2nc(N)n1` [Compound 81, 4-amino-10-(2-morpholin-4-ylethyl)-18,20-dimethyl-7-thia-3,5,10,15-tetraazatricyclo[15.3.1.1^2,6]docosa-1(20),2(22),3,5,17(21),18-hexaene-11,16-dione], the IC50 on Human HSP90 alpha worked out at 3 µM; in the assay on HCT116 cells it was 1.1 µM.

Take `Cc1cc(C)c2cc1C(=O)N(C)CCCNC(=O)CCSc1cc-2nc(N)n1` [Compound 3, 4-amino-15,18,20-trimethyl-7-thia-3,5,11,15-tetraazatricyclo[15.3.1.1^2,6]docosa-1(20),2(22),3,5,17(21),18-hexane-10,16-dione]: the results for the IC50 at Human HSP90 alpha and in the assay on HCT116 cells were 1.6 µM and 0.92 µM, respectively.

Regarding `Cc1cc(C)c2cc1C(=O)N(C)CCCC(=O)NCCSc1cc-2nc(N)n1` [Compound 13, 4-amino-15,18,20-trimethyl-7-thia-3,5,10,15-tetraazatricyclo[15.3.1.1^2,6]docosa-1(20),2(22),3,5,17(21),18-hexaene-11,16-dione], the IC50 on Human HSP90 alpha stood at 1.2 µM; in the assay on HCT116 cells, 4.4 µM.

As to `COC(=O)[C@H]1CCNC(=O)c2cc(c(C)cc2C)-c2cc(nc(N)n2)SCCC(=O)N1` [Compound 69, (R)-4-amino-18,20-dimethyl-10,16-dioxo-7-thia-3,5,11,15-tetraazatricyclo[15.3.1.1^2,6]docosa-1(20),2,4,6(22),17(21),18-hexaene-12-carboxylic acid methyl ester], the IC50 at Human HSP90 alpha is 2.9 µM; in the assay on HCT116 cells it was 3.2 µM.

For the compound `COCCNC(=O)[C@@H]1CCNC(=O)CCSc2cc(nc(N)n2)-c2cc(c(C)cc2C)C(=O)N1` [Compound 66, (S)-4-amino-18,20-dimethyl-10,16-dioxo-7-thia-3,5,11,15-tetraazatricyclo[15.3.1.1^2,6]docosa-1(20),2(22),3,5,17(21),18-hexaene-14-carboxylic acid (2-methoxyethyl) amide], the IC50 on Human HSP90 alpha was 2.5 µM; in the assay with HCT116 cells, above 10 µM.

`Cc1cc(C)c2cc1C(=O)NCCCCCNC(=O)C(C)CSc1cc-2nc(N)n1` (stereo not drawn) [Compound 7, 4-amino-9,20,22-trimethyl-7-thia-3,5,11,17-tetraazatricyclo[17.3.1.1^2,6]tetracosa-1(22),2(24),3,5,19(23),20-hexaene-10,18-dione]: the IC50 is 1.6 µM at Human HSP90 alpha and 0.4 µM in the assay on HCT116 cells.

In the case of `Nc1nc2cc(n1)-c1cc(c(Cl)cc1Cl)C(=O)NCCCCCC(=O)NCCS2` [Compound 28, 4-amino-20,22-dichloro-7-thia-3,5,10,17-tetraazatricyclo[17.3.1.1^2,6]tetracosa-1(22),2(24),3,5,19(23),20-hexaene-11,18-dione], the figures for the IC50 on Human HSP90 alpha and with HCT116 cells were 1.4 µM and 0.2 µM, respectively.

In the case of `Cc1cc(C)c2cc1C(=O)NCCCCNC(=O)CCCSc1cc-2nc(N)n1` [Compound 5, 4-amino-20,22-dimethyl-7-thia-3,5,12,17-tetraazatricyclo[17.3.1.1^2,6]tetracosa-1(22),2(24),3,5,19(23),20-hexane-11,18-dione], the figures for the IC50 at Human HSP90 alpha and with HCT116 cells were 1 µM and 0.5 µM, respectively.

As for `Cc1cc(C)c2cc1C(=O)N[C@H](CO)CCNC(=O)CCSc1cc-2nc(N)n1` [Compound 68, (S)-4-amino-14-hydroxymethyl-18,20-dimethyl-7-thia-3,5,11,15-tetraazatricyclo[15.3.1.1^2,6]docosa-1(20),2(22),3,5,17(21),18-hexaene-10,16-dione], the figures for the IC50 at Human HSP90 alpha and in the assay on HCT116 cells were 1.7 µM and 7.1 µM, respectively.
